The target in this assay is Ubiquitin carboxyl-terminal hydrolase 28 (Homo sapiens) (UniProt Q96RU2). Put plainly: Concentration-response biochemical assay confirming initial hits as inhibitors of ubiquitin-specific protease 28 (AID 1645866). To be noted: purified USP28, ubiquitin-rhodamine fluorescence, 30 min.

Structures are written as SMILES. Activity calls are given as the source filed them.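 The calls were made as follows: active = in confirmatory dose-response testing, peak deubiquitinase inhibition of 30% or more; inactive = the rest.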

Sequence of Ubiquitin carboxyl-terminal hydrolase 28 (Homo sapiens) (Q96RU2 whole entry, looked up): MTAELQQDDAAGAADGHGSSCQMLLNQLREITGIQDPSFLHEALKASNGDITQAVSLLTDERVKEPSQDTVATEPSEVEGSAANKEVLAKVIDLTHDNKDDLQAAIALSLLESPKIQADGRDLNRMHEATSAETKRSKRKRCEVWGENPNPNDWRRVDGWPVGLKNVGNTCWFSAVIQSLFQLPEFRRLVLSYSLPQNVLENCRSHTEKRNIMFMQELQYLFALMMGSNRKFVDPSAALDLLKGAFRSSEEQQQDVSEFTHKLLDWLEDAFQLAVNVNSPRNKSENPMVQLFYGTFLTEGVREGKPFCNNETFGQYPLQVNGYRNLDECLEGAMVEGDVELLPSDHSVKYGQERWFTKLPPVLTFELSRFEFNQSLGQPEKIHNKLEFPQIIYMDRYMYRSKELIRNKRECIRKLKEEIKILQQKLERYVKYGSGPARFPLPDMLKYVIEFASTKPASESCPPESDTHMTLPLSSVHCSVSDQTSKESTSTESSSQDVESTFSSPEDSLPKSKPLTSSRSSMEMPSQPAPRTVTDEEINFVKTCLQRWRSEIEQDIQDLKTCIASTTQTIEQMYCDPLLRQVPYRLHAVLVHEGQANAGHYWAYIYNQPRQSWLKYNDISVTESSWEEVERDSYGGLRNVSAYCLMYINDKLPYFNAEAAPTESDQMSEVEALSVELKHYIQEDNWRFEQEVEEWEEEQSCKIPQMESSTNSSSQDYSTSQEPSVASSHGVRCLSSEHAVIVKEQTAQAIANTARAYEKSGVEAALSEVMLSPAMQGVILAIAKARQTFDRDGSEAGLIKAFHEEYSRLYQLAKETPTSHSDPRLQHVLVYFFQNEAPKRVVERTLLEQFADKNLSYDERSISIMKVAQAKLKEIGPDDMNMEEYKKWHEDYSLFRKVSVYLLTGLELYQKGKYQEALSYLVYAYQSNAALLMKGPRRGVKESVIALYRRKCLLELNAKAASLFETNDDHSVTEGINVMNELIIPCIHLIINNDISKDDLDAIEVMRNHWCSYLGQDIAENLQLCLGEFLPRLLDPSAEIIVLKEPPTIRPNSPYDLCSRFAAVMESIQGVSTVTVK

Broadly, the IC50 is the point on the concentration scale where inhibition reaches its midpoint. As for `Cc1ccccc1C(=O)OCCN1C(=O)c2cccc3c(N4CCCCC4)ccc(c23)C1=O`, the IC50 was > 50 µM (inactive).

As to `O=C(c1ccco1)N1CCC2(CC1)CC1(CO2)Nc2ccccc2-n2cccc21` (stereo not given), the 50% inhibitory concentration (IC50) was 34.4 µM.

On to `O=C(NCc1ccccc1Cl)C1CCCN(c2nc3ccsc3c(=O)s2)C1` (stereo not given), for which the IC50 was 3.22 µM.

Turning to `C=C1CCC2[C@](C)(CCC[C@]2(C)C(=O)OC)[C@H]1CCc1ccoc1/C=C/C(=O)O` (stereo not given in full), the IC50 was 29.1 µM.

Consider `O=[N+]([O-])c1ccc(NCC2COc3ccccc3O2)c(Cl)c1` (stereo not given), for which the IC50 was 3.75 µM.

For `O=C(CSc1ncnc2c1sc1cccc(F)c12)N1CCCCCC1`, the IC50 was > 50 µM (inactive).

In the case of `CC(=O)c1ccc(Cc2ncc(C(F)(F)F)cc2Cl)s1`, the IC50 is 6.83 µM.

In the case of `Cc1cc(C)c2sc(N(CCCn3ccnc3)C(=O)Cc3ccccc3)nc2c1`, the IC50 was 17.2 µM.

`CN1CC2CN(C(=O)Nc3cccnc3)CCN2Cc2ccccc21` (stereo not given): the IC50 was > 50 µM (inactive).

On to `Cc1cc(C(=O)Nc2ccc3c(c2)OCCO3)no1`, for which the half-maximal inhibitory concentration (IC50) was 9.47 µM.

`COc1ccc(-c2ocnc2C(=O)NCc2ccc(F)cc2)cc1`: the IC50 is 8.2 µM.

Consider `COC(=O)c1cc2c(ccn2C)n1CC(=O)NC1CC1`, for which the IC50 is > 50 µM (inactive).

As to `Fc1ccccc1Cc1nc(-c2ccc3nncn3c2)no1`, the IC50 is 9.69 µM.

For `COc1cccc(N2C(=O)N(CC(=O)NCc3ccc(Cl)cc3)c3ccccc3S2(=O)=O)c1`, the IC50 was 19.1 µM.

Regarding `O=c1ncn(Cc2ccc3c(c2)OCO3)cc1-c1ncc(C(F)(F)F)cc1Cl`, the IC50 is > 50 µM (inactive).

Turning to `CC(=O)N1Cc2ccccc2CC2(CCCN(CC3CCOCC3)C2)C1` (stereo not given), the IC50 was > 50 µM (inactive).

`CCN(CC(=O)Nc1cc(C)on1)c1cccc2ccccc12`: the IC50 was > 50 µM (inactive).

On to `CC(C)NS(=O)(=O)c1ccc(OCC(=O)N2CCC(Cc3ccccc3)CC2)cc1`, for which the IC50 is 5.5 µM.

With `CCN1CCCC1CN(Cc1cc2cc(OC)ccc2[nH]c1=O)C(=O)NCc1ccccc1` (stereo not given), the IC50 was > 50 µM (inactive).

Turning to `COc1ccc(-c2nnc(SCc3ccccc3C#N)o2)c(OC)c1`, the IC50 was > 50 µM (inactive).

As to `Cc1ccc(C(C)C)cc1OCCOCCN1CCNCC1`, the IC50 was 19.8 µM.

Consider `CC1Oc2ccccc2C(=O)N(Cc2ccc([N+](=O)[O-])cc2)C1=O` (stereo not given), for which the IC50 was 12.5 µM.

For `Cc1noc(-c2ccc(N3CCCC(C(=O)NCc4ccc(F)cc4)C3)nc2)n1` (stereo not given), the IC50 is 20.3 µM.

Regarding `Cc1ccc2[nH]c(=O)c(-c3nc4ccc(C)cn4c3NCc3ccc(F)cc3)cc2c1`, the 50% inhibitory concentration (IC50) was 1.93 µM.

`O=C(Nc1oc2ccccc2c(=O)c1-c1ccc2c(c1)OCO2)C1CCCCC1`: the concentration for half-maximal inhibition (IC50) is 33.1 µM.

As for `CCn1c(COc2cccc(C(F)(F)F)c2)nnc1SCc1ccc(Cl)cc1`, the IC50 is 9.88 µM.

As to `O=C(OCCCN1C(=O)c2cccc3c(N4CCCCC4)ccc(c23)C1=O)c1ccccn1`, the IC50 is > 50 µM (inactive).

As to `CN1CCN(C(=O)c2cc(-c3ccn(-c4ccccc4)n3)n3ccccc23)CC1`, the IC50 is > 50 µM (inactive).

Regarding `COc1ccc(NC(=O)CC(=O)c2ccc([N+](=O)[O-])cc2)cc1S(=O)(=O)Nc1ccc(Cl)cc1`, the half-maximal inhibitory concentration (IC50) is 33.3 µM.

Consider `CNC(=O)c1cc2nc(N(C)C)n(-c3ccc(F)cc3)c2s1`, for which the IC50 is 11.6 µM.

Turning to `COc1ccc(C(=O)Nc2ccc3c(c2)C(=O)N(C)c2ccccc2O3)cc1`, the 50% inhibitory concentration (IC50) is 8.9 µM.

With `CCn1cc(NC(=O)CN2CCC3(CC=CCOC3)CC2)c(C)n1`, the IC50 was > 50 µM (inactive).

On to `O=C(COC(=O)C1CCCN1C(=O)C12CC3CC(CC(C3)C1)C2)c1ccc(Cl)cc1` (stereo not given), for which the IC50 was > 50 µM (inactive).

As for `COc1ccc(-c2nc(Cn3nnc(C(=O)Nc4ccc(C)cc4C)c3N)c(C)o2)cc1`, the IC50 was 42.9 µM.

Take `O=C1N(Cc2ccc(F)cc2)CCN1c1ccc2c(c1)CCC2`: the half-maximal inhibitory concentration (IC50) is 40.8 µM.

With `O=C(CSc1ncnc2c1oc1ccccc12)NC1CCCC1`, the IC50 was 20.5 µM.

Consider `O=C(Cn1c(=O)n(Cc2ccc3c(c2)OCO3)c(=O)c2ncccc21)c1ccc(Cl)cc1`, for which the IC50 was 30.4 µM.

For the compound `CCN(c1ccc(NC(=O)CSc2nnc(-c3ccccc3)n2-c2ccc(OC)c(OC)c2)cc1)C(C)C`, the concentration for half-maximal inhibition (IC50) is 6.1 µM.

On to `CC(=O)N1CCc2cc(S(=O)(=O)NCCC(=O)Nc3cccc(C)c3C)ccc21`, for which the concentration for half-maximal inhibition (IC50) is 34 µM.

Take `O=S(=O)(c1cccc2cccnc12)N(CCc1ccccc1)C1CCN(CCc2ccc(Cl)cc2)CC1`: the IC50 is > 50 µM (inactive).

On to `COc1ccccc1-c1ccc(SCC(=O)Nc2ccc3c(c2)OCCO3)nn1`, for which the half-maximal inhibitory concentration (IC50) is 2.03 µM.

On to `O=c1[nH]c(C2CCN(S(=O)(=O)c3ccc(S(=O)(=O)NC4CCCCC4)cc3)CC2)nc2c1nnn2Cc1c(F)cccc1Cl`, for which the 50% inhibitory concentration (IC50) is 17 µM.

`COc1ccc(-c2cc(C(F)F)n3ncc(C(=O)Nc4ccc5c(c4)OCCO5)c3n2)cc1`: the IC50 was > 50 µM (inactive).

In the case of `Cc1cc(/C=C2/C(=N)N3C(c4ccccc4)=CSC3=NC2=O)c(C)n1-c1ccc2ccccc2c1`, the IC50 was > 50 µM (inactive).

For `CCCC1Cc2c(sc3nc(SCC)nc(N)c23)CO1` (stereo not given), the half-maximal inhibitory concentration (IC50) is 16.4 µM.

`COc1ccc(-c2nc(C)c(C(=O)NCc3ccc(S(N)(=O)=O)cc3)s2)cc1`: the IC50 is > 50 µM (inactive).

Take `COc1cccc(NC(=O)C2C3C=CC4(O3)C2C(=O)N(CCc2ccccc2Cl)C4C(=O)NC2CCCCC2)c1` (stereo not given): the half-maximal inhibitory concentration (IC50) was 26.1 µM.

Turning to `CCC1(C)Cc2c(sc3nc(SCC(=O)Nc4ccc(C(C)=O)cc4)nc(N)c23)CO1` (stereo not given), the IC50 is 17.9 µM.

As for `CC(=O)c1ccc(NC(=O)CC2C(=O)Nc3nc4ccccc4n32)cc1` (stereo not given), the half-inhibitory concentration (IC50) was 27.3 µM.

Take `CC1=C(c2ccc(F)cc2)S(=O)(=O)N=C1Nc1ccc(Cl)cc1`: the IC50 was 28.1 µM.

For `COc1ccc(-c2cc(-c3ccc(O)cc3)nc(N)c2C#N)cc1OC`, the half-inhibitory concentration (IC50) is 32.6 µM.

Consider `CCn1c(Cn2cccn2)nc2cc(NC(=O)c3ccc(F)cc3)ccc21`, for which the half-maximal inhibitory concentration (IC50) is 15.5 µM.

`Cc1nn(-c2ccc([N+](=O)[O-])cc2)c(C)c1-c1nc2ccccc2[nH]1`: the half-maximal inhibitory concentration (IC50) is 21 µM.

With `Cc1ncncc1C(=O)N1CCCC(C)(c2ncc(Cc3cccc(F)c3)o2)C1` (stereo not given), the IC50 was > 50 µM (inactive).

Turning to `Cc1nn(-c2ccc(Cl)cc2)c2[nH]c(=O)c(CNCC3CCCO3)cc12` (stereo not given), the IC50 is > 50 µM (inactive).

`CS(=O)(=O)NC1CCCN(C(=O)Nc2cccc3ccccc23)C1` (stereo not given): the IC50 was 30.5 µM.

`O=C(c1cc2ccccc2o1)N1CC=C(c2ccccc2)CC1`: the IC50 was > 50 µM (inactive).

Take `Cc1cc2c(cc1C)NC(CC(=O)Nc1ccc(O)cc1)C(=O)N2` (stereo not given): the half-maximal inhibitory concentration (IC50) was 25 µM.

Take `O=C1C=CC(O)C2C1CC13SSC4(CC5C(=O)C=CC(O)C5N4C1=O)C(=O)N23` (stereo not given): the IC50 is > 50 µM (inactive).

For the compound `Oc1ccc(-c2nc3cnccn3c2NCCc2ccccc2)c(O)c1`, the IC50 was > 50 µM (inactive).

Consider `O=C(Cn1cncc(-c2nc(-c3ccccc3)cs2)c1=O)NC1CCCC1`, for which the 50% inhibitory concentration (IC50) was 36.5 µM.

Take `FC(F)(F)c1ccccc1CCN1CCc2nc3ccc(Cl)cc3cc2C1`: the IC50 is > 50 µM (inactive).

Consider `O=[N+]([O-])c1ccc(N2CCN(c3ncnc4c3[nH]c3ccc(F)cc34)CC2)cc1`, for which the IC50 was 0.225 µM.

Take `COc1ccc(CCC(=O)Nc2ccc3c(c2)Sc2ncccc2C(=O)N3C)cc1`: the IC50 is 41 µM.

For the compound `c1cnc(-c2n[nH]c(C3CCN(C4CCNC4)CC3)n2)cn1` (stereo not given), the IC50 was > 50 µM (inactive).

Consider `COc1ccc2cc1Oc1cc(ccc1OC)C(O)C13SSC4(C(=O)N1C)C(O)C1=COC=CC(OC2=O)C1N4C3=O` (stereo not given), for which the IC50 is > 50 µM (inactive).

In the case of `CC(C)(C)C(=O)NC(c1ccccc1)c1nnc(N2CCOCC2)o1` (stereo not given), the IC50 was > 50 µM (inactive).

Take `N#Cc1cc(C(=O)c2ccc(Cl)cc2)c[nH]1`: the IC50 is 41.9 µM.

Take `CC(CCc1ccccc1)NC(=O)Cn1c(=O)c2cccn2c2ccccc21` (stereo not given): the IC50 was 14.3 µM.

For `COc1ccc(CN2CCCC23CCCN(C(=O)CCc2cccnc2)C3)cc1F` (stereo not given), the IC50 is 26.4 µM.

For the compound `COc1cccc(-n2c(CNCc3cccnc3)nc3ccc([N+](=O)[O-])cc3c2=O)c1`, the IC50 is 20.2 µM.

Regarding `COc1ccc(-c2nc(SCC(=O)Nc3ccc(Cl)cc3F)n[nH]2)cc1`, the IC50 was > 50 µM (inactive).

`Cc1ccccc1Cn1ccc2ccn(Cc3cccnc3)c2c1=O`: the IC50 was 10.4 µM.

For the compound `Cc1nc2nc(SCc3nc4ccccc4n3C)[nH]c2cc1Br`, the IC50 is 2.9 µM.

Take `COc1cccc(-c2nc(C(N)=O)c3[nH]c(=O)n(-c4cccc(Cl)c4)c3n2)c1OC`: the IC50 is > 50 µM (inactive).

As for `O=C(NCc1cccnc1)C1CCN(c2cnc(N3CCCCCC3)nc2)CC1`, the IC50 was 0.0687 µM.

For the compound `COc1ccc(C)cc1NC(=O)C1CC(=O)Nc2nc(SCc3ccccc3)nn21` (stereo not given), the half-inhibitory concentration (IC50) was 14.7 µM.

`COc1cccc2cc(C(=O)Nc3ccc4c(c3)OCCO4)oc12`: the IC50 was 9.86 µM.

Turning to `O=C(Nc1ccc(-c2cn3ccccc3n2)cc1)C1C=C2C=C(Br)C=CC2OC1=O` (stereo not given), the IC50 was 1.97 µM.

Consider `Cc1cc(=O)n(CC(=O)Nc2ccccc2C)c(Nc2ccc(F)cc2)n1`, for which the IC50 is 19.5 µM.

With `Cc1ccc(C(=O)Nc2cc3c4c(c2)CC(=O)N4CCC3)cc1`, the IC50 was 8.27 µM.

On to `O=C(CC1C(=O)Nc2nc(-c3ccccc3)nn21)Nc1cccc2ccccc12` (stereo not given), for which the IC50 is 15 µM.

As for `COc1ccccc1NC(=O)c1nn(-c2cccc(F)c2)c(OC)cc1=O`, the half-maximal inhibitory concentration (IC50) was 25.1 µM.

For the compound `CCOC(=O)c1ccc(NC(=O)COc2cccc3c2CCN(CC)C3=O)cc1`, the IC50 was 5.4 µM.

On to `Cc1cccc(NC(=O)Cn2c(=O)n(Cc3ccc(F)cc3)c(=O)c3sccc32)c1`, for which the IC50 is 7 µM.

For the compound `COc1ccccc1-n1nnc(C(=O)Nc2ccc(Oc3ccccc3)cc2)c1C`, the IC50 is 6.16 µM.

For `O=C(Nc1ccc(Oc2cccc3cccnc23)cc1)c1cccs1`, the 50% inhibitory concentration (IC50) is 0.531 µM.

In the case of `CCc1ccc(-n2nc(C)c3c2NC(=O)CC3C(=O)c2ccc3c(c2)OCCO3)cc1` (stereo not given), the concentration for half-maximal inhibition (IC50) was 26.4 µM.

Regarding `C[C@@]12c3ccc4c(c3C(=O)c3occ(c31)C(O)C[C@H]2O)CCC4=O` (stereo not given in full), the IC50 is > 50 µM (inactive).

For `COc1cccc(NC(=O)Nc2ccc(CCc3nc4ccccc4[nH]3)cc2)c1`, the half-inhibitory concentration (IC50) was 6.28 µM.

The values above are taken from PubChem BioAssay AID1645866 (Buhrlage Lab, Dana-Farber Cancer Institute and Novartis …, 2021).
